In ChEMBL document CHEMBL1143031, “First synthesis of 7alpha- and 7beta-amino-DHEA, dehydroepiandrosterone (DHEA) analogues and preliminary evaluation of their cytotoxicity on Leydig cells and TM4 Sertoli cells” (2007):

Tests used:
Format in all cases: functional
[1] = Effect on cell necrosis in Sprague-Dawley rat Leydig cells assessed as cell viability at 35 uM after 24 hrs by trypan blue test; settings: read-out: Activity
[2] = Effect on necrosis in BALB/c mouse sertoli TM4 cells assessed as cell viability at 70 uM after 24 hrs by Trypan blue test; settings: TM4, 24 h, read-out: Activity
[3] = Effect on apoptosis in BALB/c mouse sertoli TM4 cells assessed as cell viability at 35 uM after 24 hrs by DAPI test; settings: TM4, 24 h, read-out: Activity
[4] = Effect on cell necrosis in Sprague-Dawley rat Leydig cells assessed as cell viability at 70 uM after 24 hrs by trypan blue test; settings: read-out: Activity
[5] = Effect on apoptosis in Sprague-Dawley rat Leydig cells assessed as cell viability at 35 uM after 24 hrs by DAPI test; settings: read-out: Activity
[6] = Effect on apoptosis in BALB/c mouse sertoli TM4 cells assessed as cell viability at 70 uM after 24 hrs by DAPI test; settings: TM4, 24 h, read-out: Activity
[7] = Effect on necrosis in BALB/c mouse sertoli TM4 cells assessed as cell viability at 35 uM after 24 hrs by Trypan blue test; settings: TM4, 24 h, read-out: Activity
[8] = Effect on apoptosis in Sprague-Dawley rat Leydig cells assessed as cell viability at 70 uM after 24 hrs by DAPI test; settings: read-out: Activity

| Compound | viability at 35 µM [1] [%] | viability at 70 µM [2] [%] | viability at 35 µM [3] [%] | viability at 70 µM [4] [%] | viability at 35 µM [5] [%] | viability at 70 µM [6] [%] | viability at 35 µM [7] [%] | viability at 70 µM [8] [%] |
| --- | --- | --- | --- | --- | --- | --- | --- | --- |
| C[C@]12CC[C@H](O)CC1=C[C@H](N)[C@@H]1[C@@H]2CC[C@]2(C)C(=O)CC[C@@H]12 | 93 | 0 | 82 | 85 | 92 | 79 | 64 | 89 |
| C[C@]12CC[C@H](O)CC1=CC[C@@H]1[C@@H]2CC[C@]2(C)C(=O)CC[C@@H]12 [PRASTERONE] | 86 | 92 | 90 | 76 | 95 | 90 | 92 | 95 |
